Assay results reported in PubChem BioAssay AID2060357 (Molecular Pharmacology Branch, DTP, NCI, 2025).

Tested on: 292921-168-R-J2-PDC spheroids with HUVEC/MSC, viability
Assay: Anticancer human tumor 292921-168-R-J2-PDC patient-derived pancreatic carcinoma cell line growth inhibition [TAK]
Conditions: for IC50: curve of first compound; for viability, T/C: stronger effect = lower value
How it was run: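 Drug combinations, each paired with TAK-243 or ipatasertib, were tested on multi-cell spheroids of 60% malignant cells, 25% HUVEC and 15% hMSC. Top concentrations were at or near the clinical Cmax (10 microM if undetermined), decreasing by half-log; viability is given as % test/control.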

[1] = second compound 0.3 µM, first compound 0.316 µM
[2] = second compound 0.3 µM, first compound 1 µM
[3] = second compound 0.3 µM, first compound 3.16 µM
[4] = second compound 0.3 µM, first compound 10 µM
[5] = second compound 0.949 µM, first compound 0.316 µM
[6] = second compound 0.949 µM, first compound 1 µM
[7] = second compound 0.949 µM, first compound 3.16 µM
[8] = second compound 0.949 µM, first compound 10 µM
[9] = second compound 3 µM, first compound 0.316 µM
[10] = second compound 3 µM, first compound 1 µM
[11] = second compound 3 µM, first compound 3.16 µM
[12] = second compound 3 µM, first compound 10 µM
[13] = second compound 9.49 µM, first compound 0.316 µM
[14] = second compound 9.49 µM, first compound 1 µM
[15] = second compound 9.49 µM, first compound 3.16 µM
[16] = second compound 9.49 µM, first compound 10 µM
[17] = second compound 30 µM, first compound 0.316 µM
[18] = second compound 30 µM, first compound 1 µM
[19] = second compound 30 µM, first compound 3.16 µM
[20] = second compound 30 µM, first compound 10 µM
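Note: spheroids exposed to drugs for seven days before readout.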

Work on CCCS(=O)(=O)Nc1ccc(F)c(C(=O)c2c[nH]c3ncc(-c4ccc(Cl)cc4)cc23)c1F + CC(C)NCC(C(=O)N1CCN(c2ncnc3c2C(C)CC3O)CC1)c1ccc(Cl)cc1 yielded an IC50 (second compound 0.3 µM) of 29900 nM, an IC50 (second compound 0.949 µM) of over 100000 nM and an IC50 (second compound 3 µM) of 11000 nM. The IC50 (second compound 9.49 µM) was 5500 nM, the IC50 (second compound 30 µM) was under 316 nM and the viability, T/C [1] was 109%. The viability, T/C [2] was 106%, the viability, T/C [3] was 102% and the viability, T/C [4] was 67.5%. It also gave a viability, T/C (second compound 0.3 µM, first compound 31.6 µM) of 44.7%, a viability, T/C (second compound 0.3 µM, first compound 100 µM) of 52.2% and a viability, T/C [5] of 95.2%. The viability, T/C [6] was 104%, the viability, T/C [7] was 89.6% and the viability, T/C [8] was 52.5%. For the same molecule, the viability, T/C (second compound 0.949 µM, first compound 31.6 µM) was 41.4%, the viability, T/C (second compound 0.949 µM, first compound 100 µM) was 65.2% and the viability, T/C [9] was 94.7%. For the same molecule, the viability, T/C [10] was 96%, the viability, T/C [11] was 81.3% and the viability, T/C [12] was 44.2%. For the same molecule, the viability, T/C (second compound 3 µM, first compound 31.6 µM) was 41%, the viability, T/C (second compound 3 µM, first compound 100 µM) was 16.8% and the viability, T/C [13] was 72.5%. The viability, T/C [14] was 75.4%, the viability, T/C [15] was 62.5% and the viability, T/C [16] was 35.5%. It also gave a viability, T/C (second compound 9.49 µM, first compound 31.6 µM) of 26.2%, a viability, T/C (second compound 9.49 µM, first compound 100 µM) of 17.7% and a viability, T/C [17] of 48.3%. It also gave a viability, T/C [18] of 49.2%, a viability, T/C [19] of 35.7% and a viability, T/C [20] of 16.6%. The viability, T/C (second compound 30 µM, first compound 31.6 µM) was 14.9% and the viability, T/C (second compound 30 µM, first compound 100 µM) was 9.5%.
Work on CC(C)(C)c1nc(-c2cccc(NS(=O)(=O)c3c(F)cccc3F)c2F)c(-c2ccnc(N)n2)s1 + CC(C)NCC(C(=O)N1CCN(c2ncnc3c2C(C)CC3O)CC1)c1ccc(Cl)cc1 yielded an IC50 (second compound 0.3 µM) of 2270 nM, an IC50 (second compound 0.949 µM) of 1800 nM and an IC50 (second compound 3 µM) of 1250 nM. The IC50 (second compound 9.49 µM) was 682 nM, the IC50 (second compound 30 µM) was under 31.6 nM and the viability, T/C (second compound 0.3 µM, first compound 0.0316 µM) was 94.8%. It also gave a viability, T/C (second compound 0.3 µM, first compound 0.1 µM) of 94.7%, a viability, T/C [1] of 88.7% and a viability, T/C [2] of 74.2%. For the same molecule, the viability, T/C [3] was 40.1%, the viability, T/C [4] was 20.5% and the viability, T/C (second compound 0.949 µM, first compound 0.0316 µM) was 85.2%. The viability, T/C (second compound 0.949 µM, first compound 0.1 µM) was 92%, the viability, T/C [5] was 80.5% and the viability, T/C [6] was 66.9%. The viability, T/C [7] was 34.2%, the viability, T/C [8] was 17.9% and the viability, T/C (second compound 3 µM, first compound 0.0316 µM) was 83.4%. For the same molecule, the viability, T/C (second compound 3 µM, first compound 0.1 µM) was 85.9%, the viability, T/C [9] was 77.4% and the viability, T/C [10] was 55.2%. For the same molecule, the viability, T/C [11] was 27.5%, the viability, T/C [12] was 15.8% and the viability, T/C (second compound 9.49 µM, first compound 0.0316 µM) was 72.5%. It also gave a viability, T/C (second compound 9.49 µM, first compound 0.1 µM) of 70.8%, a viability, T/C [13] of 64.7% and a viability, T/C [14] of 42.5%. It also gave a viability, T/C [15] of 22.7%, a viability, T/C [16] of 15.2% and a viability, T/C (second compound 30 µM, first compound 0.0316 µM) of 46.5%. For the same molecule, the viability, T/C (second compound 30 µM, first compound 0.1 µM) was 49.8%, the viability, T/C [17] was 44.1% and the viability, T/C [18] was 35.6%. For the same molecule, the viability, T/C [19] was 19.8% and the viability, T/C [20] was 14.1%.
